Test results: patent US20170239249A1, “QUINAZOLINE-BASED KINASE INHIBITORS” (Bristol-Myers Squibb Company, priority 2014, published 2017)

The compounds below were run against AAK1 (full length human) (Homo sapiens, UniProt Q2M2I8) (assay: HEK281 Cell-Based Assay (phospho-mu2 Western blot in HEK293F cells transfected with AAK1 and AP2M1)). Conditions: IC50 (nM), functional potency; inhibition of mu2 phosphorylation in HEK293F cells, 3 hours incubation, 5 concentrations.
Sequence of AAK1 (full length human) (Q2M2I8 1-863 isoform Q2M2I8-2): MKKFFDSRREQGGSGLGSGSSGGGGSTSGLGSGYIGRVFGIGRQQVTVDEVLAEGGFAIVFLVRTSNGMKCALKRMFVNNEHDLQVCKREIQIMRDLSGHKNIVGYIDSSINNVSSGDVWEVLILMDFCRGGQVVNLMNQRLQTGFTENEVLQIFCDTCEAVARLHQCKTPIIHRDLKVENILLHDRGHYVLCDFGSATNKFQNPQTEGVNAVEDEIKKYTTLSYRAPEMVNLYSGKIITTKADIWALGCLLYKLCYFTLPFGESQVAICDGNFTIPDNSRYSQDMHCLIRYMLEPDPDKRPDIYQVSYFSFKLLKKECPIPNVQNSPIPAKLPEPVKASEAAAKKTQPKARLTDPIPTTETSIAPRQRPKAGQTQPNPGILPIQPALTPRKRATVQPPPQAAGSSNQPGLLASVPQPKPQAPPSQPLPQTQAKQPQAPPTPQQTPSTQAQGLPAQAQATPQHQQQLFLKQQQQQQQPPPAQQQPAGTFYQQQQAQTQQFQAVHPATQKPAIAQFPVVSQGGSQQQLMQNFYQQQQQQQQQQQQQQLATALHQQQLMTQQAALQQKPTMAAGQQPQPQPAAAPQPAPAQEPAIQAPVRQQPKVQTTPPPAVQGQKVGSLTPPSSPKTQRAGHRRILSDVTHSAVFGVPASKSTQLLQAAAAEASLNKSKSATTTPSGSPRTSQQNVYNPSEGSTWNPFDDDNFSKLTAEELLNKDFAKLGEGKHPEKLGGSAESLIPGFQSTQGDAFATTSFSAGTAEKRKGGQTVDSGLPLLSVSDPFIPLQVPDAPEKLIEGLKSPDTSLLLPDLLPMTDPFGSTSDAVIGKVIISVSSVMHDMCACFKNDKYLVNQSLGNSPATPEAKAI
`CC(C)CCc1nc(N2CCC2)c2cc(-c3cnco3)ccc2n1` [Example 83, 5-(4-(Azetidin-1-yl)-2-isopentylquinazolin-6-yl)oxazole] gave an IC50 of 812 nM.
Compound `CC(C)CCc1nc(NC2CC2)c2cc(-c3cnco3)ccc2n1` [Example 84, N-Cyclopropyl-2-isopentyl-6-(oxazol-5-yl)quinazolin-4-amine] has an IC50 of 2580 nM.
Work on `CCc1nc(C(N)CC(C)C)nc2cc(OC)c(-c3cnco3)cc12` (stereo not shown) [Example 85, 1-(4-Ethyl-7-methoxy-6-(oxazol-5-yl)quinazolin-2-yl)-3-methylbutan-1-amine] yielded an IC50 of 24 nM.
Work on `CCc1nc(C(N)CC(C)C)nc2cc(OC)c(-c3ccncc3)cc12` (stereo not shown) [Example 88, 1-(4-Ethyl-7-methoxy-6-(pyridin-4-yl)quinazolin-2-yl)-3-methylbutan-1-amine] yielded an IC50 of 932 nM.
